# Measurements: publication PMC11887051, “Discovery of ONO-2920632 (VU6011887): A Highly Selective and CNS Penetrant TREK-2 (TWIK-Related K+ Channel 2) Preferring Activator In Vivo Tool Compound” (ACS Chemical Neuroscience, 2025)
# Target: T1, TREK-1 (Homo sapiens, UniProt O95069)
# T1 sequence (O95069 1-426): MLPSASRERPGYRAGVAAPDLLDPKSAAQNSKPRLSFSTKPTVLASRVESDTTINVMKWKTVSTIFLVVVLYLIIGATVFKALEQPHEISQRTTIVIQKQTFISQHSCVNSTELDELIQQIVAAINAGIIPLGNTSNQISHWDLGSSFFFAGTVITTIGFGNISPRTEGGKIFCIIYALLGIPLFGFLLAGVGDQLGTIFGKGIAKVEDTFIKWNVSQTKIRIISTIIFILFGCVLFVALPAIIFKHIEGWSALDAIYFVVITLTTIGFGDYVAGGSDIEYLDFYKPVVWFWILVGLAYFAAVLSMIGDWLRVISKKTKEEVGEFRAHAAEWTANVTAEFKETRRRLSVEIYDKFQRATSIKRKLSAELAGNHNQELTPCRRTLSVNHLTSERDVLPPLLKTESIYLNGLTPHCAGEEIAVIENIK
# Test: TREK-1 thallium flux assay (hTREK-1/CHO)
# Assay type: cell-based
# Set-up: host or cells: CHO
# Conditions: not given
# Experimental: (§1) Procedures for Biological Experiments
# TREK-1 and TREK-2 thallium flux assay protocol
# CHO cells stably expressing human TREK-1 (hTREK-1/CHO) were constructed at Evotec. […]
# (§2) hTREK-1/CHO or hTREK-2/HEK were plated in 384-well plates at a density of 1.0x10^4 cells/well or 2.0x10^4 cells/well, respectively, and cultured overnight. After the wash by HBSS + 20 mM HEPES buffer, cells were loaded with Thallos dye for 1 hour at room temperature. After the wash […]
# (§3) dissolved with HBSS + 20mM HEPES buffer were added to each well. After 10 minutes incubation at room temperature, thallium stimulus buffer were added to each well and the fluorescent intensity are measured by Panoptic. The final thallium concentration was 0.36 mM in […]
# (§4) TREK-1 or 0.24 mM in TREK-2, respectively. […]
row,EC50 [nM],Structure (SMILES)
1,1600,O=C(NCc1ccc(Br)cc1Cl)c1ccc(-c2ncn[nH]2)cc1 [Compound 14a]
2,8100,CS(=O)(=O)Nc1ccc(C(=O)NCc2ccc(Cl)cc2Cl)cc1 [Compound 13]
3,3800,Cc1cc(OC(F)(F)F)ccc1CNC(=O)c1ccc2ncnn2c1 [Compound 19a]

row,Structure (SMILES),EC50 [nM]
1,O=C(NCc1ccc(OC(F)(F)F)cc1F)c1ccc2ncnn2c1 [Compound 19b],2800

# Same assay, conditions: % activation relative to 10 µM BL-1249
row,Emax [%],Structure (SMILES)
1,93,O=C(NCc1ccc(Br)cc1Cl)c1ccc(-c2ncn[nH]2)cc1 [Compound 14a]
2,85,CS(=O)(=O)Nc1ccc(C(=O)NCc2ccc(Cl)cc2Cl)cc1 [Compound 13]
3,99,Cc1cc(OC(F)(F)F)ccc1CNC(=O)c1ccc2ncnn2c1 [Compound 19a]

row,Structure (SMILES),Emax [%]
1,O=C(NCc1ccc(OC(F)(F)F)cc1F)c1ccc2ncnn2c1 [Compound 19b],95

# Target: T2, TREK-2 (Homo sapiens, UniProt P57789)
# T2 sequence (P57789 1-538): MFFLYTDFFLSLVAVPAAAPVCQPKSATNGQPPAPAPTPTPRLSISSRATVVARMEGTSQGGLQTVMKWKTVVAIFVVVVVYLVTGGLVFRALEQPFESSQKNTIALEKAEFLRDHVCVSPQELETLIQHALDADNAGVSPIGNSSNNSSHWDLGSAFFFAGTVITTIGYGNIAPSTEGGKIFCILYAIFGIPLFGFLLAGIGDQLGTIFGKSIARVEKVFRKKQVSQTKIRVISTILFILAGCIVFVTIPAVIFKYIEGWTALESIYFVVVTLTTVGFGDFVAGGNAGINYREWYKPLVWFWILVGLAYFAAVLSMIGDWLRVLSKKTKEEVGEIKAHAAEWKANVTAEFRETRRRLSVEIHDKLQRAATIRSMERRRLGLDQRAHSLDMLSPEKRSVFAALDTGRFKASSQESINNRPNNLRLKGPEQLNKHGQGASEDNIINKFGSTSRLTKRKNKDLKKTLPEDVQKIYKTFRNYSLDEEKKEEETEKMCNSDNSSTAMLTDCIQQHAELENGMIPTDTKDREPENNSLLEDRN
# Test: TREK-2 thallium flux assay (hTREK-2/HEK)
# Assay type: cell-based
# Set-up: expressed in transfected cells; host or cells: HEK293
# Conditions: not given
# Experimental: as §1
# TREK-1 and TREK-2 thallium flux assay protocol […]
# as §2, with “HEK293 cells stably expressing human TREK-2 (hTREK-2/HEK) were constructed at Ono. hTREK-1/CHO” for “hTREK-1/CHO”
# as §3, §4
row,EC50 [nM],Structure (SMILES)
1,730,O=C(NCc1ccc(Br)cc1Cl)c1ccc(-c2ncn[nH]2)cc1 [Compound 14a]
2,3200,CS(=O)(=O)Nc1ccc(C(=O)NCc2ccc(Cl)cc2Cl)cc1 [Compound 13]
3,150,Cc1cc(OC(F)(F)F)ccc1CNC(=O)c1ccc2ncnn2c1 [Compound 19a]

row,Structure (SMILES),EC50 [nM]
1,O=C(NCc1ccc(OC(F)(F)F)cc1F)c1ccc2ncnn2c1 [Compound 19b],300

# Same assay, conditions: % activation relative to 10 µM BL-1249
row,Emax [%],Structure (SMILES)
1,183,O=C(NCc1ccc(Br)cc1Cl)c1ccc(-c2ncn[nH]2)cc1 [Compound 14a]
2,155,CS(=O)(=O)Nc1ccc(C(=O)NCc2ccc(Cl)cc2Cl)cc1 [Compound 13]
3,160,Cc1cc(OC(F)(F)F)ccc1CNC(=O)c1ccc2ncnn2c1 [Compound 19a]

row,Structure (SMILES),Emax [%]
1,O=C(NCc1ccc(OC(F)(F)F)cc1F)c1ccc2ncnn2c1 [Compound 19b],184

# Same assay, conditions: TREK-2 preference over TREK-1, thallium flux
row,Fold TREK-2 [fold],Structure (SMILES)
1,~3,CS(=O)(=O)Nc1ccc(C(=O)NCc2ccc(Cl)cc2Cl)cc1 [Compound 13]
2,25.3,Cc1cc(OC(F)(F)F)ccc1CNC(=O)c1ccc2ncnn2c1 [Compound 19a]

row,Structure (SMILES),Fold TREK-2 [fold]
1,O=C(NCc1ccc(OC(F)(F)F)cc1F)c1ccc2ncnn2c1 [Compound 19b],9.3
